In patent US20110217293A1, “Uses of morelloflavone” (priority 2008, published 2011):
Entries after “also recorded” stand apart in the source; their conditions may differ.

Tests used:
[1] = tested on: vascular smooth muscle cells; assay: DNA fragmentation (apoptosis) assay; assay type: cell-based
Method: (§1) Mouse vascular smooth muscle cells, isolated as described (13), were maintained in 231 media (Cascade Biologics, Portland, Oreg.) supplemented with SMGS (Cascade Biologics) in a humidified incubator at 37° C. with 5% CO2. Cells from passages 4-9 were used in all experiments. All experiments were performed in subconfluent, unsynchronized cells growing in SMGS except for the lamellipodium formation assay.
Vascular smooth muscle cells were seeded at 1×10^5 cells per well in 24-well culture plates, treated with morelloflavone, and subjected to DNA fragmentation assay, according to the manufacturer's instructions (Cell Death Detection ELISAPLUS, Roche). Briefly, the cells were treated with […] of morelloflavone for 24 hrs. The 1×10^5 cells were lysed, cleared by centrifugation, and transferred into streptavidin-coated plates. Anti-histone antibody conjugated to biotin and anti-nucleosomal-DNA-antibody conjugated to horseradish peroxidase were added. After incubation and washing, 2,2′-azino-bis-[3-ethylbenzthiazoline-6-sulfonic acid] (ABTS) substrate solution was added. The 5 absorbance rate at 405 nm against ABTS solution was measured with the reference wavelength of 490 nm.

[2] = tested on: vascular smooth muscle cells; assay: BrdU incorporation assay; assay type: cell-based, mouse; parameters: effect on BrdU labelling indices: dose or concentration left out as unconfirmed
Method: as §1
Vascular smooth muscle cells were seeded at 2×10^4 cells per well in 96-well culture plates and incubated overnight. The next day, cells were found approximately 60-70% confluent. Cells were treated with various concentrations of morelloflavone ([…]) for 2 hrs and then pulsed with BrdU at 1 mM for 8 hrs. The amount of BrdU incorporated into the cells was quantified by BrdU Cell Proliferation Assay kit (Calbiochem, San Diego, Calif.), according to manufacturer's instructions. Briefly, the cells were fixed and permeabilized on tissue culture plastic, and incubated with anti-BrdU monoclonal antibody. After extensive washing, bound antibodies were visualized by goat anti-mouse IgG conjugated to horseradish peroxidase and tetra-methylbenzidine substrate and quantified by spectrophotometer at 450 nm. The protein content was determined using the Bradford assay (Bio-Rad, Hercules, Calif.).

Structure (SMILES): O=C1c2c(O)cc(O)cc2O[C@H](c2ccc(O)cc2)[C@H]1c1c(O)cc(O)c2c(=O)cc(-c3ccc(O)c(O)c3)oc12 [morelloflavone, 5,7, 4′, 5″, 7″, 3″, 4″-heptahydroxy-[3,8″]-flavonylflavanone]
- DNA fragmentation indices, trend with concentration ([1]; 0, 1, 10, 100 mM): decreased as morelloflavone concentrations increased
- apoptosis / induction of DNA fragmentation ([1]; concentrations equal to or less than 100 mM, 24 hrs): did not induce DNA fragmentation; also recorded: does not cause apoptosis; also recorded: does not induce cytotoxicity
- effect on BrdU labelling indices [2]: decreases BrdU labelling indices
- effect on percentage of S-phase cells / DNA synthesis (BrdU) ([2]; concentrations up to 10 mM): did not significantly affect DNA synthesis; also recorded: does not affect the percentage of S-phase cells; also recorded: does not affect cell cycle progression
